Assay results as given in patent US20220195389A1, “METHODS OF IMPROVING THE LONGEVITY OF IMMUNE CELLS” (University of Houston System, priority 2019, published 2022).

System: T cells
Assay: T-cell viability after incubation with compound C
Assay type: cell-based, human
Details: 10 μM dorsomorphin, 6-24 hours
Experimental: T cells were incubated with 10 μM dorsomorphin (Sigma Aldrich) for a period of 6-24 hours. The T cells were subsequently used for either motility assays or functional profiling using TIMING assays.

## c1cc(-c2cnn3cc(-c4ccc(OCCN5CCCCC5)cc4)cnc23)ccn1 [CC, dorsomorphin]
  impact on T-cell viability: did not have an impact
